This is an account of results in patent EP0533925A1, “OPTICAL ISOMER OF R-FORM OF DIPHENYL ETHER DERIVATIVE AND HERBICIDE CONTAINING THE SAME AS ACTIVE INGREDIENT” (TEIJIN LIMITED, priority 1990, dated 1991).

Structures can show the parent of a compound that is named as a salt.

Holding throughout (format): in vivo
The test system of assay [1] is Narrow-leaved Plants (a, b, c, k). The experiment in a line: Average withering rate, single and mixed solutions (Test Example 11). Further details: unit: %. As to conditions: 3 weeks. The source says: (§1) The alphabetical symbols in Tables 2 and 3 represent the following plants, respectively: a: Digitaria adscendens b: Setaria viridis c: Sorghum halepense d: Chenopodium album var. centrorubrum e: Amaranthus mangostanus f: Astragalus sinicus g: Abutilon theophrosti h: Solanum nigrum i: Xanthium strumarium j: Soybean; Glycine max k: Corn; Zea mays Table 2
(§2) In each run, the compound (1) according to the invention only or the N-phosphonomethylglycine derivatives (117) only or the mixture thereof were used as in the Test Example 1 to prepare single solutions and mixed solutions by using various amounts of each components. Each of the preparations were applied to the plants as in Test Example 1 and the cultivation was continued for 3 weeks without additive application thereafter.
(§3) The results were analyzed by Tammes's method [Tammes, P.M.L.: Neth. J. Plant Path., 70, 73-80 (1964)] which was cited in "Zasso Kenkyuu" (in Japanese) (Weed Studies) 14, 12-18 […] and shown in Fig. 1 and Fig. 2.
(§4) Fig. 1 represents the average withering rate of 4 kinds of narrow-leaved plants (a, b, c, and k), while Fig. 2 gives withering rate of 7 kinds of broad-leaved plants (d, e, f, g, h, i j). As these figures show clearly, the curve binding the points of 95 % effect is inside the one of the synergistic effect, thus it can be concluded that the mixed preparation has synergistic effect.

Assay [2] relates to Broad-leaved Plants (d, e, f, g, h, i, j). The description is as above. Set-up: unit: %. The note with it: 3 weeks.
Text: as §1, §2, §3, §4

Another assay has as its system Corn; Zea mays. Briefly: Herbicidal activity, spray of diphenyl ether with N-phosphonomethylglycine derivative (Test Examples 6 to 10). Set-up: key: 0 means the state where the plants are as sound as before the application of the active compound; 1, 2, 3 and 4 mean varying degrees of the enfeebled state of the plants between 0 and 5; 1, 2, 3 and 4 mean varying degrees of the enfeebled state of the plants between 0 and 5; 1, 2, 3 and 4 mean varying degrees of the enfeebled state of the plants between 0 and 5; 1, 2, 3 and 4 mean varying degrees of the enfeebled state of the plants between 0 and 5; 5 is the state where the plants are withered or killed by application of the active compound. As to conditions: Application 0.375 Kg/ha (117) alone. Here is the method:
(§5) In these examples, all parts means parts by weight, unless otherwise noted. The herbicidal activity was evaluated on a scale of 6 degrees. In other words, 0 means the state where the plants are as sound as before the application of the active compound, while 5 is the state where the plants are withered or killed by application of the active compound, and 1, 2, 3 and 4 mean varying degrees of the enfeebled state of the plants between 0 and 5.
(§6) In each run, the diphenyl ether derivatives and the N-phosphonomethylglycine derivatives shown in Table 3 (in the indicated mixing ratios) was dissolved in 16 parts by volume of a mixture of water and acetone (1 : 1 by volume; containing 0.05 % of a nonionic surfactant, Sorpol-2680) in the indicated mixing ratio, respectively, to prepare spray solutions.
(§7) The plants tested were grown in vinyl resin pots (diameter 10 cm) filled with soil in a green house for 2 to 3 weeks after germination from seeds or tubers.
(§8) The spray solution was applied to the plants so that the total volume sprayed became 4 cc/100 cm², and the herbicidal activity was examined.
as §1

The next assay relates to Setaria viridis. Described as above. Set-up: key: 0 means the state where the plants are as sound as before the application of the active compound; 1, 2, 3 and 4 mean varying degrees of the enfeebled state of the plants between 0 and 5; 1, 2, 3 and 4 mean varying degrees of the enfeebled state of the plants between 0 and 5; 1, 2, 3 and 4 mean varying degrees of the enfeebled state of the plants between 0 and 5; 1, 2, 3 and 4 mean varying degrees of the enfeebled state of the plants between 0 and 5; 5 is the state where the plants are withered or killed by application of the active compound. The note with it: Application 0.375 Kg/ha (117) alone. Here is the method: as §5, §6, §7, §8, §1

For the next assay, the system named is Soybean; Glycine max. The assay is described as above. Further details: key: 0 means the state where the plants are as sound as before the application of the active compound; 1, 2, 3 and 4 mean varying degrees of the enfeebled state of the plants between 0 and 5; 1, 2, 3 and 4 mean varying degrees of the enfeebled state of the plants between 0 and 5; 1, 2, 3 and 4 mean varying degrees of the enfeebled state of the plants between 0 and 5; 1, 2, 3 and 4 mean varying degrees of the enfeebled state of the plants between 0 and 5; 5 is the state where the plants are withered or killed by application of the active compound. The note with it: Application 0.375 Kg/ha (117) alone. As for the experimental part:
as §5, §6, §7, §8, §1

A further assay relates to Astragalus sinicus. Described as above. As to conditions: Application 0.375 Kg/ha (117) alone. Further details: key: 0 means the state where the plants are as sound as before the application of the active compound; 1, 2, 3 and 4 mean varying degrees of the enfeebled state of the plants between 0 and 5; 1, 2, 3 and 4 mean varying degrees of the enfeebled state of the plants between 0 and 5; 1, 2, 3 and 4 mean varying degrees of the enfeebled state of the plants between 0 and 5; 1, 2, 3 and 4 mean varying degrees of the enfeebled state of the plants between 0 and 5; 5 is the state where the plants are withered or killed by application of the active compound. Here is the method:
as §5, §6, §7, §8, §1

Another assay has as its system Digitaria adscendens. The description is as above. Further details: key: 0 means the state where the plants are as sound as before the application of the active compound; 1, 2, 3 and 4 mean varying degrees of the enfeebled state of the plants between 0 and 5; 1, 2, 3 and 4 mean varying degrees of the enfeebled state of the plants between 0 and 5; 1, 2, 3 and 4 mean varying degrees of the enfeebled state of the plants between 0 and 5; 1, 2, 3 and 4 mean varying degrees of the enfeebled state of the plants between 0 and 5; 5 is the state where the plants are withered or killed by application of the active compound. The note with it: Application 0.375 Kg/ha (117) alone. As for the experimental part: as §5, §6, §7, §8, §1

The subject of the next assay is Amaranthus mangostanus. The description is as above. The note with it: Application 0.375 Kg/ha (117) alone. Further details: key: 0 means the state where the plants are as sound as before the application of the active compound; 1, 2, 3 and 4 mean varying degrees of the enfeebled state of the plants between 0 and 5; 1, 2, 3 and 4 mean varying degrees of the enfeebled state of the plants between 0 and 5; 1, 2, 3 and 4 mean varying degrees of the enfeebled state of the plants between 0 and 5; 1, 2, 3 and 4 mean varying degrees of the enfeebled state of the plants between 0 and 5; 5 is the state where the plants are withered or killed by application of the active compound. As for the experimental part: as §5, §6, §7, §8, §1

[3] abbreviates: Compound (1) 0.008 kg a.i./ha, Compound (117) 0 kg a.i./ha.
[4] abbreviates: Compound (1) 0.016 kg a.i./ha, Compound (117) 0 kg a.i./ha.
[5] abbreviates: Compound (1) 0.031 kg a.i./ha, Compound (117) 0 kg a.i./ha.
[6] abbreviates: Compound (1) 0 kg a.i./ha, Compound (117) 0.094 kg a.i./ha.
Where [7] appears, read: Compound (1) 0 kg a.i./ha, Compound (117) 0.188 kg a.i./ha.
Where [8] appears, read: Compound (1) 0 kg a.i./ha, Compound (117) 0.375 kg a.i./ha.
[9] abbreviates: Compound (1) 0 kg a.i./ha, Compound (117) 0.750 kg a.i./ha.

As for `COC(=O)C(C)Oc1cc(Oc2ccc(C(F)(F)F)cc2Cl)ccc1C#N` (stereo not drawn) [Compound (1), Methyl α-[2-cyano-5-(2-chloro-4-trifluoromethylphenoxy)phenoxy]propionate], the “Average Withering Rates of Narrow-leaved Plants (a, b, c, k)” value in assay [1] (setting [3]) is reported as 33; in assay [1] (setting [4]), 47; in assay [1] (setting [5]), 80; in assay [1] (Compound (1) 0.063 kg a.i./ha, Compound (117) 0 kg a.i./ha), 93. The “Average Withering Rates of Broad-leaved Plants (d, e, f, g, h, i, j)” value in assay [2] (setting [3]) is recorded as 80; in assay [2] (setting [4]) it was 80; in assay [2] (setting [5]) it was 96.

As to `O=C(O)CNCP(=O)(O)O` [Compound (117), N-phosphonomethylglycine isopropylammonium salt], the “Average Withering Rates of Narrow-leaved Plants (a, b, c, k)” value came to 50 in assay [1] (setting [6]), 87 in assay [1] (setting [7]), 87 in assay [1] (setting [8]) and 95 in assay [1] (setting [9]). For the same compound, the “Average Withering Rates of Broad-leaved Plants (d, e, f, g, h, i, j)” value amounted to 4 in assay [2] (setting [6]), 36 in assay [2] (setting [7]), 55 in assay [2] (setting [8]) and 80 in assay [2] (setting [9]). Further, the “herbicidal activity, Plants k” value in the assay on Corn; Zea mays (3 days after treatment), in the assay with Corn; Zea mays (7 days after treatment) and in the assay with Corn; Zea mays (14 days after treatment) was 0 in each case. In addition, the “herbicidal activity, Plants b” value in the assay on Setaria viridis (3 days after treatment) came to 0; in the assay on Setaria viridis (7 days after treatment) it was 0; in the assay on Setaria viridis (14 days after treatment) it was 1. Also, the “herbicidal activity, Plants j” value with Soybean; Glycine max (3 days after treatment), in the assay on Soybean; Glycine max (7 days after treatment) and in the assay on Soybean; Glycine max (14 days after treatment) was 0 each time. Also, the “herbicidal activity, Plants f” value with Astragalus sinicus (3 days after treatment), in the assay on Astragalus sinicus (7 days after treatment) and in the assay on Astragalus sinicus (14 days after treatment) was 0 each time. Further, the “herbicidal activity, Plants a” value with Digitaria adscendens (3 days after treatment) is recorded as 3; with Digitaria adscendens (7 days after treatment), 1; in the assay on Digitaria adscendens (14 days after treatment), 3. Further, the “herbicidal activity, Plants e” value in the assay with Amaranthus mangostanus (3 days after treatment), in the assay with Amaranthus mangostanus (7 days after treatment) and in the assay with Amaranthus mangostanus (14 days after treatment) was 0 each time.
